Data set [1] concerns brain tissue. Description: Gene expression in brain tissue. The class given is in vivo, mice. The following applies: mouse brain tissue. The source says: Similar effects have been observed in non-heart tissue.
Data set [2] concerns isolated perfused rat hearts. Description: Isolated working rat heart, ischemia/reperfusion, cardiac function (Example 6). The class given is in vivo, Sprague-Dawley rats. The method, then:
Isolated working heart preparation. After completing the feeding protocol, the animals were anesthetized with sodium pentobarbital (80 mg/kg, intraperitoneally) (Abbott Laboratories, North Chicago, Ill., USA), and heparin sodium (500 U/kg, intravenously) (Elkins-Sinn Inc., Cherry Hill, N.J., USA) was used as an anticoagulant. After deep anesthesia, the hearts were excised, the aorta was cannulated, and the hearts were perfused through the aorta in Langendorff mode at a constant (100 cm of water) perfusion pressure at 37° C. with Krebs-Henseleit bicarbonate for a 5 min washout period as described previously. Ray et al. (1999) Free Rad Biol Med 27:160-9.
During the washout period, the left atrium was cannulated, and the Langendorff preparation was switched to the working mode for 10 min with a left atrial filling pressure of 17 cm H2O; the aortic afterload pressure was set to 100 cm of water. At the end of 10 min, the baseline cardiac function such as heart rate (HR, beats/min), aortic flow (AF, ml/min), coronary flow (CF, ml/min), left ventricular developed pressure (LVDP, mmHg) and first derivative of developed pressure (LVdp/dt, mmHg/sec) were recorded. Later, 30 min of global ischemia was initiated by clamping the left atrial inflow and aortic outflow lines at a point close to their origins. After 30 min, reperfusion was initiated for 120 min by unclamping the atrial inflow and aortic outflow lines. The first 10 min of reperfusion was in Langendorff mode to avoid ventricular fibrillation, and then the hearts were switched to an anterograde working mode. Ray et al. (1999) Free Rad Biol Med 27:160-9.
Cardiac function assessment. After 10 min of the working mode, baseline parameters were recorded. To monitor the recovery of the heart, the left ventricular cardiac function was recorded after 60 and 120 min of reperfusion. Six rats were present in each group. […] Coronary flow was measured by timed collection of the coronary effluent dripping from the heart. During the entire experiment, the aortic pressure was monitored using a Gould P23XL pressure transducer (Gould Instrument Systems Inc., Valley View, Ohio, USA) connected to the side arm of the aortic cannula; the signal was amplified using a Gould 6600 series signal conditioner (Gould Instrument Systems Inc.). […] The heart rate, left ventricular developed pressure, and the first derivative of developed pressure were all calculated from the continuously generated pressure signal.
At the end of the 21 days, the animals were sacrificed, their hearts were excised and isolated, and ischemia was induced for 30 min by terminating the coronary flow (as described in the methods section). This was then followed by 2 h of reperfusion in the working mode; during the reperfusion left ventricular function was monitored.

In data set [3] the test system is cardiomyocytes. Description: Cardiomyocyte apoptosis, TUNEL (Example 6). The class given is in vivo, Sprague-Dawley rats. How it is done:
Cardiomyocyte apoptosis. Immunochemical detection of apoptotic cells was performed using the terminal deoxynucleotidyl transferase-medicated dUTP nick-end labeling (TUNEL) method. Malik et al. […] The sections were incubated with mouse monoclonal antibody recognizing cardiac myosin heavy chain to specifically detect apoptotic cardiomyocytes. The fluorescence staining was viewed with a confocal laser microscope. The number of apoptotic cells was counted and expressed as a percent of the total myocyte population. At the end of each experiment the hearts were either subjected to TTC staining to determine infarct size or TUNEL staining to detect apoptosis.

The text below walks through data of patent US20140011889A1, “Resveratrol-Containing Compositions and Methods of Use for Cardiac-Related Diseases” (Resveratrol Partners, LLC, priority 2010, published 2014).

The structures appear in SMILES notation.

In the case of `Oc1ccc(/C=C/c2cc(O)cc(O)c2)cc1` [resveratrol, 3,4′,5-trihydroxy-trans-stilbene], in data set [1], the “genes with altered expression, treatment and calorie reduced diets, number” value was 10 genes. Also, in data set [2] (100 mg/kg, gavage 21 days), the “aortic flow and developed pressure” value is listed as “no aortic flow or developed pressure”. Moreover, in data set [2] (2.5 and 25 mg/kg, gavage 21 days, 30 min ischemia, 2 h reperfusion), the “cardioprotection (aortic flow, LVDP, maximum LVdP/dt)” value is “conferred cardioprotection”. Besides, the “ventricular function (aortic flow, LVDP, maximum LVdP/dt)” value in data set [2] (above 25 mg/kg, gavage 21 days) is on record as “ventricular function was deteriorated”. In addition, the “hormetic action (dose-response of cardioprotection)” value in data set [2] (rat, doses up to 100 mg/kg) is “displayed hormetic action”. For the same molecule, in data set [3] (2.5 and 25 mg/kg), the cardiomyocyte apoptosis entry is “significantly reduced”. Besides, the “number of apoptotic cardiomyocytes” value in data set [3] (above 50 mg/kg) is “significant increased”.
